Several values for one entry are separate records, joined by “and”; a condition that tells them apart may be missing. Equal values may be shown once. Toxic doses and inconclusive results are not listed. How the source made its calls: active means survival T/C of 150% or more; inactive means T/C below 125% in these data.
System: BDF1 mice, P388 leukemia ip, median survival T/C
Assay: NCI In Vivo Anticancer Drug Screen. Data for tumor model P388 Leukemia (intraperitoneal) in B6D2F1 (BDF1) mice
Settings: endpoint: median survival time, higher = longer survival
How it was run: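 Each value expresses how treatment altered survival: treated-mouse outcome over vehicle-mouse outcome, both groups bearing the transplanted tumour.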

[1] = dose: 50.0 mg/kg/injection, schedule: Q01DX009 (ip), vehicle: saline
[2] = dose: 100.0 mg/kg/injection, schedule: Q01DX009 (ip), vehicle: saline
[3] = dose: 200.0 mg/kg/injection, schedule: Q01DX009 (ip), vehicle: saline
[4] = dose: 12.5 mg/kg/injection, schedule: Q01DX009 (ip), vehicle: saline
[5] = dose: 25.0 mg/kg/injection, schedule: Q01DX009 (ip), vehicle: saline
[6] = dose: 50.0 mg/kg/injection, schedule: Q04DX003 (ip), vehicle: saline
[7] = dose: 100.0 mg/kg/injection, schedule: Q04DX003 (ip), vehicle: saline
[8] = dose: 200.0 mg/kg/injection, schedule: Q04DX003 (ip), vehicle: saline
[9] = dose: 400.0 mg/kg/injection, schedule: Q04DX003 (ip), vehicle: saline
[10] = dose: 100.0 mg/kg/injection, schedule: Q04DX002 (ip), vehicle: Klucel (hydroxypropylcellulose) (HPC)
[11] = dose: 50.0 mg/kg/injection, schedule: Q01DX009 (ip), vehicle: saline with Tween-80
[12] = dose: 100.0 mg/kg/injection, schedule: Q01DX009 (ip), vehicle: saline with Tween-80
[13] = dose: 200.0 mg/kg/injection, schedule: Q01DX009 (ip), vehicle: saline with Tween-80
[14] = dose: 100.0 mg/kg/injection, schedule: Q01DX009 (ip), vehicle: Klucel (hydroxypropylcellulose) (HPC)
[15] = dose: 100.0 mg/kg/injection, schedule: Q04DX003 (ip), vehicle: Klucel (hydroxypropylcellulose) (HPC)
[16] = dose: 200.0 mg/kg/injection, schedule: Q01DX009 (ip), vehicle: Klucel (hydroxypropylcellulose) (HPC)
[17] = dose: 200.0 mg/kg/injection, schedule: Q04DX003 (ip), vehicle: Klucel (hydroxypropylcellulose) (HPC)
[18] = dose: 50.0 mg/kg/injection, schedule: Q01DX009 (ip), vehicle: Klucel (hydroxypropylcellulose) (HPC)

Measured: T/C

OCCCC1CCCCC1
inactive: [1] 111 % of control | [2] 113 % of control | [3] 117 % of control

O=C(CSc1cc(-c2ccc(Cl)cc2)s[s+]1)c1ccc(Cl)cc1
inactive: [4] 109 % of control | [5] 89 % of control | [1] 89 % of control | [6] 97 % of control | [2] 101 % of control | [7] 90 % of control and 100 % of control and 105 % of control | [3] 107 % of control | [8] 97 % of control and 111 % of control | dose: 300.0 mg/kg/injection, schedule: Q04DX003 (ip), vehicle: saline 111 % of control | [9] 103 % of control

CCn1c(Cl)c(/C=N/Nc2ccc([N+](=O)[O-])cc2[N+](=O)[O-])c2ccccc21
inactive: [10] 92 % of control | dose: 200.0 mg/kg/injection, schedule: Q04DX002 (ip), vehicle: Klucel (hydroxypropylcellulose) (HPC) 92 % of control | dose: 400.0 mg/kg/injection, schedule: Q04DX002 (ip), vehicle: Klucel (hydroxypropylcellulose) (HPC) 88 % of control

CCSC1(SCC)C(=O)OC2=C(CCCCCC2)C1N(C)C (stereo not drawn)
inactive: [11] 96 % of control | [12] 99 % of control | [13] 99 % of control

COC(=O)C(Br)C(Br)N1C(=O)c2ccccc2C1=O (stereo not drawn)
inactive: [14] 100 % of control | [15] 104 % of control | [16] 104 % of control | [17] 100 % of control | dose: 400.0 mg/kg/injection, schedule: Q01DX009 (ip), vehicle: Klucel (hydroxypropylcellulose) (HPC) 108 % of control | dose: 400.0 mg/kg/injection, schedule: Q04DX003 (ip), vehicle: Klucel (hydroxypropylcellulose) (HPC) 109 % of control

COc1ccc(SC/C(=N\NOS(=O)(=O)c2ccc(C)cc2)c2ccccc2)cc1
inactive: [1] 96 % of control | [2] 98 % of control | [3] 109 % of control

CCOC(=O)c1c[nH]n2c(=S)ncnc12
inactive: [12] 100 % of control and 109 % of control | [13] 110 % of control | dose: 400.0 mg/kg/injection, schedule: Q01DX009 (ip), vehicle: saline with Tween-80 104 % of control

CN(C)CC1CCC/C(=C\C=C\c2ccccc2)C1=O (stereo not drawn)
inactive: dose: 4.37 mg/kg/injection, schedule: Q01DX009 (ip), vehicle: Klucel (hydroxypropylcellulose) (HPC) 104 % of control and 113 % of control | dose: 8.75 mg/kg/injection, schedule: Q01DX009 (ip), vehicle: Klucel (hydroxypropylcellulose) (HPC) 109 % of control | dose: 17.5 mg/kg/injection, schedule: Q01DX009 (ip), vehicle: Klucel (hydroxypropylcellulose) (HPC) 109 % of control and 118 % of control | dose: 35.0 mg/kg/injection, schedule: Q01DX009 (ip), vehicle: Klucel (hydroxypropylcellulose) (HPC) 120 % of control | [18] 120 % of control | dose: 75.0 mg/kg/injection, schedule: Q01DX009 (ip), vehicle: Klucel (hydroxypropylcellulose) (HPC) 120 % of control

NC(=S)N/N=C/C=C/c1ccccc1
inactive: [10] 96 % of control

c1ccc2c(c1)[nH]c1nc3ncncc3nc12
inactive: [7] 122 % of control | [8] 100 % of control | [9] 100 % of control

CCc1nnc2c3cc4ccccc4n3cnn12
inactive: [11] 86 % of control | [12] 87 % of control | [13] 103 % of control

O=[N+]([O-])c1ccc(N2CCN(Cc3ccccc3)CC2)c2c1no[n+]2[O-]
inactive: dose: 75.0 mg/kg/injection, schedule: Q04DX003 (ip), vehicle: saline with Tween-80 101 % of control | dose: 300.0 mg/kg/injection, schedule: Q04DX003 (ip), vehicle: saline with Tween-80 121 % of control

CC(=O)OCc1ccc(-n2c(C(F)(F)F)nc3nc(Cl)c(Cl)nc32)o1
inactive: [1] 100 % of control | [6] 108 % of control | [2] 107 % of control | [7] 103 % of control | [8] 101 % of control | [9] 100 % of control

O=[N+]([O-])c1cc([N+](=O)[O-])c(Nn2c3ccccc3c3ccccc32)c([N+](=O)[O-])c1
inactive: dose: 6.25 mg/kg/injection, schedule: Q01DX009 (ip), vehicle: Klucel (hydroxypropylcellulose) (HPC) 100 % of control | dose: 12.5 mg/kg/injection, schedule: Q01DX009 (ip), vehicle: Klucel (hydroxypropylcellulose) (HPC) 90 % of control and 100 % of control | dose: 25.0 mg/kg/injection, schedule: Q01DX009 (ip), vehicle: Klucel (hydroxypropylcellulose) (HPC) 100 % of control and 110 % of control | [18] 120 % of control | [14] 100 % of control | [15] 100 % of control | [16] 95 % of control | [17] 113 % of control

Clc1ncnc2c1ncn2C1CCCCO1 (stereo not drawn)
inactive: [5] 90 % of control | [1] 100 % of control | dose: 100.0 mg/kg/injection, schedule: Q01DX009 (ip), vehicle: other 92 % of control | [2] 95 % of control | dose: 100.0 mg/kg/injection, schedule: Q04DX003 (ip), vehicle: other 108 % of control | dose: 200.0 mg/kg/injection, schedule: Q04DX003 (ip), vehicle: other 108 % of control | dose: 400.0 mg/kg/injection, schedule: Q01DX009 (ip), vehicle: other 115 % of control | dose: 400.0 mg/kg/injection, schedule: Q04DX003 (ip), vehicle: other 108 % of control

CCOP(=S)(OCC)OP(=S)(OCC)OCC
inactive: dose: 1.0 mg/kg/injection, schedule: Q04DX003 (ip), vehicle: other 111 % of control | dose: 2.0 mg/kg/injection, schedule: Q04DX003 (ip), vehicle: other 106 % of control | dose: 4.0 mg/kg/injection, schedule: Q04DX003 (ip), vehicle: other 106 % of control

NS(=O)(=O)O
inactive: [4] 91 % of control | [5] 87 % of control
